# Reference: patent US9675607B2, “Epimorphic regeneration and related hydrogel delivery systems” (Northwestern University, priority 2013, dated 2017)
# “Also recorded” adds a separate entry of the source.
# Assays:
# [1] = tested on: HIF2a; assay: HIF2a levels in injured ear tissue of SW mice (Western); format: in vivo, mouse
# Method: (§1) Ear tissue samples (3 ear hole donuts/ear from 3 separate mice) were homogenized in radio-immunoprecipitation assay buffer (50 mM Tris-HCl pH 7.6, containing 150 mM NaCl,1% Triton X-100, 1% sodium deoxycholate, 1 mM EDTA and 0.1% SDS) with 1 mM PMSF and a protease inhibitor cocktail (Sigma). Samples with equal amounts of protein (about 40 μg) were loaded into a NuPAGE 4-12% Bis-Tris gradient gel or 8% Bis-Tris gel (Life Technologies, Grand Island, N.Y.), electrophoresed and then electro-transferred onto a PVDF-FL membrane (Immobilon, Billerica, Mass.).
# Mice were injected subcutaneously at the base of the neck with 100 μL of 10% (w/v) 1:1 (w/w) ratio of P8Cys (with or without 1,4-DPCA drug crystal) to P8NHS hydrogel prepared in PBS. Each component was kept cold and mixed just prior to injection. At different time points, mice were euthanized and tissues were removed for protein and RNA analysis.
# [2] = tested on: HIF target gene transcription; assay: RT-PCR of HIF target gene transcription in treated B6 cells; format: cell-based, mouse
# Method: (§2) Total RNA from ear fibroblast-like cells or ear hole donuts was prepared with Qiagen RNeasy kit (Qiagen) according to the manufacturer's guidelines. First strand cDNA was synthesized from 1 μg of RNA using the Superscript First-Strand Synthesis System (Invitrogen, Carlsbad, Calif.) according to the manufacturer's instructions. qPCR was performed with SYBR green PCR Master Mix (Applied Biosystems, Life Technologies). In brief, a 20 μl mixture was used containing 10 μl SYBR Green PCR master mix, 1 μl forward and reverse primer, 6 μl sterile water, and 2 μl of complementary DNA template. A negative control (non-template control) was performed in each run. The real-time PCR was performed using a Quant Studio 6 Flex (Applied Biosystems) according to the manufacturer's instructions. All data were normalized to 18S rRNA and quantitative measurements were obtained using the ΔΔCT method. (The primers used are listed with the kit, but not shown, here.
# [3] = Solubility of 1,4-DPCA; format: physicochemical
# [4] = tested on: prolyl 4-hydroxylase; settings: cited from earlier work
# [5] = tested on: SW ear tissue; assay: Histology, immunostaining and qPCR of injured ear tissue of SW mice; format: in vivo, mouse
# Method: as §2
# The methods used were performed as previously described. Tissue from normal ears were fixed with Prefer fixative (the active ingredient is glyoxal) (Anatech) overnight and then washed in H2O. Tissue was embedded in paraffin and 5-μm thick sections cut. Before staining, slides were dewaxed in xylene and rehydrated. Antigen retrieval was performed by autoclaving for 20 min in 10 mM Sodium Citrate, pH 6.0. Tissue sections were then treated with 3% H2O2 and nonspecific binding was blocked with 4% BSA (A7906; Sigma) for 1 h. For immunocytochemistry staining, primary ear skin fibroblasts were grown on coverslips in DMEM with 10% FBS at 37° C. in a humidified 5% CO2 incubator. The coverslips were rinsed with 1×PBS, the cells were fixed in cold methanol (−20° C.) for 10 min, rinsed with 1×PBS, treated with 0.1% Triton-X100, and then incubated with the appropriate primary and secondary antibodies (Table 1). Photomicrographs were produced using the fluorescent microscope (Olympus AX70) and a Spot camera with bundled software.
# For histological stains, tissue sections were treated the same as above and then stained with Hematoxylin (Leica Microsystems, #3801562) and Eosin (Leica Microsystems, #3801602), Picro-Sirius Red (Poly Scientific, cat. # s2365), Alcian blue (1% in 3% acetic acid (Polyscience, Bay Shore, N.Y., cat # S111A), or toluidine blue O (Allied Chemical, Morristown, N.J., cat. # NA0652), counterstained with Kernechtrot (Polyscience, Bay Shore, N.Y., cat # S248). The slides were washed, […], cleared with Xylene and coverslipped with Permount mounting media (Fisher, SP15-500). Staining was visualized using an Olympus (AX70) microscope in bright field for H&E and under polarized light for Picro-Sirius Red.
# For quantitation of IHC signal, the method used was previously described. Briefly, we used ImagePro v4.0 for image analysis by selecting positive staining from multiple areas in the sections. The number of “positive staining” pixels was determined. The area was expressed in square microns and the final data were expressed as IHC staining signal per square micron. The mean of 2-6 samples were plotted and standard errors calculated.
# [6] = tested on: hydroxylases (PHDs and FIH); settings: cited from earlier work
# [7] = tested on: HIF1a; assay: HIF1a levels in injured ear tissue of SW mice after subcutaneous drug/gel injection (Western, IHC); format: in vivo, mouse; settings: single 100 ul injection, 2 mg/ml drug microcrystals; Western and IHC
# Method: The kinetics of the effectiveness of the drug/gel construct in the injured ear was examined to determine how often re-injection would be necessary. After earpunching, a single injection (100 ul) of hydrogel containing either 2 mg/ml drug microcrystals (Gd) or 0 mg/ml drug microcrystals (G0) was given plus an un-injected group. Ears were harvested daily for 5 days (FIG. 3D).
# as §1
# The methods used were performed as previously described. […]
# For quantitation of IHC signal, the method used was previously described. […] The number of “positive staining” pixels was determined. The area was expressed in square microns and the final data were expressed as IHC staining signal per square micron. The mean of 2-6 samples were plotted and standard errors calculated. […]
# [8] = tested on: collagen hydroxylation; settings: rats given this compound; cited from earlier work
# [9] = tested on: diabetic wound; settings: applied directly to the wound site; cited from earlier work
# [10] = tested on: 3T3 fibroblasts; assay: Cell viability, ISO 10993 neutral red; format: cell-based; settings: 24 hours, positive control
# Method: Viability of 3T3 fibroblasts exposed to drug microcrystals was quantified using ISO 10993. Briefly, different dilutions of drug microcrystals in cell culture medium were added to a subconfluent monolayer of 3T3 fibroblasts (n=3). The cells were cultured for 24 hours at 37° C., 5% CO2, and >90% RH and then washed with PBS. Neutral red solution (0.4%) in DMEM was added, and the cells were stained for 3 hours. Following removal of the staining solution and washing the cells with PBS, the cells were destained using 50% ethanol, 49% ddH2O and 1% glacial acetic acid. Following 10 minutes of agitation, absorbance was measured at 540 nm and used to quantify cell viability. […] Culture medium was used as a negative control. Cell culture medium consisted of high glucose DMEM substituted with L-glutamine, penicillin/streptomycin, 10% v/v newborn calf serum and 20 mM HEPES.
# [11] = tested on: Swiss Webster (SW) mice; assay: Ear hole closure in ear-punched Swiss Webster mice; format: in vivo, mouse; settings: SW mice given 2 mg/ml drug/gel 3 times plus the inhibitor
# Source text: Inbred mouse strains were used to study the effect of a small molecule inhibitor of PHD on in-vitro and in-vivo levels of HIF1a, and the impact of this on quantitative regenerative ear hole closure phenotypes. In animal studies, 2.1 mm ear hole punch wounds were created and a 1,4-DPCA-containing hydrogel was subcutaneously implanted in the back of the neck of mice at multiple time-points. Healing was monitored by measuring hole diameters. Endpoints of the study were previously determined to be 30+ days post-injury and included key indices of tissue regeneration such as blastema formation, epithelial, dermal, and cartilaginous wound closure with hair follicle replacement plus multiple molecular markers of cellular de-differentiation, re-differentiation, and stem cell state. These parameters were determined by physical measurements of wound closure, standard tissue histology and histomorphometry, and gene expression using quantitative immunohistochemistry, western analysis, and qPCR. The experimental groups were coded and different laboratory personnel were involved in injuries, injections, phenotyping and data analysis. […]
# [12] = day 7, 1,4-DPCA drug/gel-treated SW mice plus inhibitor
molecule,measurement,setting,value
"O=C(O)c1c[nH]c2c(ccc3cccnc32)c1=O [1,4-DPCA, 1,4-dihydrophenonthrolin-4-one-3-carboxylic acid]",HIF2a in ear tissue in-vivo,[1],barely affected
same,"HIF target genes Vegf, Hmox1, Ldh-a, Pgk, Pdk1, Glut1 mRNA",[2],specifically increased
same,solubility in water,[3],low solubility
same,inhibition of prolyl 4-hydroxylase,[4],selective and potent inhibitor
same,Laminin (basement membrane) in ear tissue,"[5]; SW ear tissue, immunostaining",reduced
same,MMP9 in ear tissue,"[5]; SW ear tissue, immunostaining",increased
same,inflammatory cell markers MPO and Ly6G in ear tissue,"[5]; SW ear tissue, immunostaining",increased
same,inhibition of the hydroxylases in-vitro and in-vivo at the protein level,[6],potent inhibitor
same,day on which HIF1a levels in the ear begin to rise,[7],1 days
same,days of peak HIF1a levels in the ear post-injection,[7],3 to 4 days
same,collagen hydroxylation and collagen deposition,[8],inhibition of collagen hydroxylation and a reduction in collagen deposition
"CC(=O)N(O)CCCCCNC(=O)CCC(=O)N(O)CCCCCNC(=O)CCC(=O)N(O)CCCCCN [DFX, desferrioxamine B]",diabetic wound healing,[9],enhance diabetic wound healing
"COC(=O)CNC(=O)C(=O)OC [DMOG, dimethyloxallyl glycine]",diabetic wound healing,[9],enhance diabetic wound healing
CCCCCCCCCCCCOS(=O)(=O)[O-].[Na+] [SDS],"IC50, cell viability",[10],in the acceptable range
Endostatin,"HIF1a, CD31 and OCT3/4 staining",[5]; [12],near complete absence
same,"MMP-9, MPO and neutrophil specific-marker",[5]; [12],did not inhibit; also recorded: to a lesser degree
same,laminin staining,"[5]; day 7, 1,4-DPCA drug/gel-treated SW mice, endostatin compared with siHif1a_3",greater degree of inhibition
same,"effect on ear hole closure induced by 1,4-DPCA drug/gel",[11],almost complete blockage of ear hole closure
